The source of these data is patent publication US5039665A, “Use of fructose-1,6-diphosphate for treating myocardial infarction” (priority 1990, dated 1991).

One experiment deals with erythrocytes. Description: incubation of erythrocytes: ATP and 2-3 DPG content. Particulars: equimolar, same conditions. It is filed as cell-based. From the text: (§1) To allow for a broader and more complete interpretation of the results, a small paragraph will be devoted to the ability of FDP to cross the cellular membranes.
For the next experiment, the system named is rabbit ileum. In words: force of contraction of isolated rabbit ileum. The settings on record: added to perfusate.
From the text: as §1

The subject of the next experiment is heart preparation. The settings on record: infusion of Locke's solution plus sugar; cited from earlier work.

Each structure is given as a SMILES string.

On to `O=C(CO)[C@@H](O)[C@H](O)[C@H](O)COP(=O)(O)O` [fructose-6-phosphate], for which the “ATP content in the erythrocytes” value with erythrocytes is on record as “failed to increase the ATP content”. For the same compound, the force of contraction result in the experiment with rabbit ileum is “fail to produce the same effect”.

Turning to `O=C(CO)[C@@H](O)[C@H](O)[C@H](O)CO` [fructose], the “ATP content in the erythrocytes” value in the experiment with erythrocytes was “failed to increase the ATP content”. The force of contraction entry with rabbit ileum was “fail to produce the same effect”. In the experiment on heart preparation, the “amplitude and frequency of heart beats, lactic acid, pH and potassium during recovery” value is “no significant difference”.

As to `O=C[C@H](O)[C@@H](O)[C@H](O)[C@H](O)COP(=O)(O)O` [glucose-6-phosphate], in the experiment with erythrocytes, the “ATP content in the erythrocytes” value was “failed to increase the ATP content”. In addition, the force of contraction result in the experiment with rabbit ileum is “fail to produce the same effect”.

With `O=P(O)(O)O` [inorganic phosphate], the “ATP content in the erythrocytes” value in the experiment with erythrocytes is on record as “failed to increase the ATP content”. For the same compound, the force of contraction entry in the experiment with rabbit ileum is given as “fail to produce the same effect”.

On to `OC[C@H]1O[C@@](CO)(O[C@H]2O[C@H](CO)[C@@H](O)[C@H](O)[C@H]2O)[C@@H](O)[C@@H]1O` [sucrose], for which the “amplitude and frequency of heart beats, lactic acid, pH and potassium during recovery” value in the experiment on heart preparation is on record as “no significant difference”.
